Measurements reported in ChEMBL document CHEMBL4184240, “Potent human glutaminyl cyclase inhibitors as potential anti-Alzheimer's agents: Structure-activity relationship study of Arg-mimetic region” (Bioorg Med Chem, 2018).
Activity calls are given as the source filed them. The rule behind the calls is not given here.

Assays:
[1] = Permeability of the compound at pH 7.4 after 30 mins by PAMPA; type: ADME; details: pH 7.4, 0.5 h
hERG (KCNH2) = hERG (KCNH2) (Homo sapiens, UniProt Q12809); test: Inhibition of human ERG at 10 uM relative to control
Chain of hERG (KCNH2) (Q12809 whole entry): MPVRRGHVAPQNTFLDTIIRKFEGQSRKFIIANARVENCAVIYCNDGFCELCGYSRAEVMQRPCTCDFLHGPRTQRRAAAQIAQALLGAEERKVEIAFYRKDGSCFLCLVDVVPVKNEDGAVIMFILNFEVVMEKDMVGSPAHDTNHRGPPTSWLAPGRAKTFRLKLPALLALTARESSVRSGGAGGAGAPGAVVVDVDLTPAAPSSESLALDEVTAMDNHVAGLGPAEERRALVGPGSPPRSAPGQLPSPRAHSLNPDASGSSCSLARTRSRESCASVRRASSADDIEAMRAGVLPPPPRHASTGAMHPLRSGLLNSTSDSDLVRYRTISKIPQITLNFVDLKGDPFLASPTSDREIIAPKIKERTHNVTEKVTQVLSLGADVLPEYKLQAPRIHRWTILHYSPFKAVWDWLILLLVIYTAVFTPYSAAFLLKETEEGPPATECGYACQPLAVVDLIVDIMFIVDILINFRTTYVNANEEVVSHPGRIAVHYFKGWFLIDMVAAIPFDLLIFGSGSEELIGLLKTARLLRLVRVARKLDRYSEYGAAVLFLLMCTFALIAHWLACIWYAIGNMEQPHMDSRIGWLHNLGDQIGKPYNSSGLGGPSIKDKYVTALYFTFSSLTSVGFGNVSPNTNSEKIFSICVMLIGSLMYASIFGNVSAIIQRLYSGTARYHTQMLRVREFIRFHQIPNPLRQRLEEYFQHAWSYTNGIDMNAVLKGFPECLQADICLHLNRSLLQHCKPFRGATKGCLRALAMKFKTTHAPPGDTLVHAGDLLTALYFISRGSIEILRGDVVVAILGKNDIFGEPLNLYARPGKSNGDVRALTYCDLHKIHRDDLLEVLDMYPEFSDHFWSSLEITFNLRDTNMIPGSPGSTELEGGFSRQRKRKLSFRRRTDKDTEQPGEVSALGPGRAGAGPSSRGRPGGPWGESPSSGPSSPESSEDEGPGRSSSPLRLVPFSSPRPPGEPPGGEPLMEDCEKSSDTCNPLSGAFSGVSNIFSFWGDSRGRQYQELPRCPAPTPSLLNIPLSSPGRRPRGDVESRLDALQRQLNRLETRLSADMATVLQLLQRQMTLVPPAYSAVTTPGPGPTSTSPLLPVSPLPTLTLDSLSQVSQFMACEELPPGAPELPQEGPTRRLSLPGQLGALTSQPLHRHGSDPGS

[2] = Cytotoxicity against mouse HT22 cells assessed as cell viability at 10 uM relative to control; type: cell-based, HT-22; details: read-out: Activity
Mus musculus [3] = species on record: Mus musculus; details: ICR, 25 mg/kg
Description: (§1) Antialzheimer activity in human amyloid beta (3 to 40) induced acute ICR mouse Alzheimer's disease mouse model assessed as inhibition of amyloid beta (N3pE to 40) formation in brain at 25 mg/kg, icv administered via deep cortical/hippocampal tissue measured next day by sandwich ELISA relative to control

Mus musculus [4] = species on record: Mus musculus; test: animal or person; details: ICR, central, read-out: INH
Description: as §1

Row | Compound | log(permeability) [1] | inhibition at 10 µM (hERG (KCNH2)) | viability at 10 µM [2] | inhibition (Mus musculus [3]) | inhibition in vivo at 25 mg/kg (Mus musculus [4])
1 | COc1cc(NC(=S)NCCCn2cncc2C)ccc1OCC(=O)NC1CCN(CCN)CC1 | -6.4 | 17.8% | 100% | inactive | –
2 | COc1cc(NC(=S)NCCCn2cncc2C)ccc1Oc1ccc(C2CCNCC2)cc1 | -5.6 | 72.8% | 100% | inactive | –
3 | COc1cc(NC(=S)NCCCn2cncc2C)ccc1Oc1ccc(N2CCNCC2)cc1 | -5.6 | 39.7% | 100% | inactive | –
4 | COc1cc(NC(=S)NCCCn2cncc2C)ccc1OCC(=O)N1CCN(CCN)CC1 | -10 | 14% | 100% | inactive | –
5 | COc1cc(NC(=S)NCCCn2cncc2C)ccc1OCCN1CCN(CCOCCN)CC1 | – | – | 51.1% | – | –
6 | COc1cc(NC(=S)NCCCn2cncc2C)ccc1Oc1ccc(C2=CCNCC2)cc1 | -4.9 | 52.8% | 100% | – | 16.1%
7 | COc1cc(NC(=S)NCCCn2cncc2C)ccc1OCCN1CC(C)NC(C)C1 (stereo not given) | -5.3 | 2.5% | 100% | inactive | –
8 | COc1cc(NC(=S)NCCCn2cncc2C)ccc1OCCC(=O)NC1CCNCC1 | -5.6 | 5% | 100% | – | 13.5%
9 | COc1cc(NC(=S)NCCCn2cncc2C)ccc1OCCC(=O)N1CCNCC1 | -5.7 | 1.7% | 100% | – | 18.7%

Further lines, with some results ahead:

Row | log(permeability) [1] | Compound | inhibition at 10 µM (hERG (KCNH2)) | viability at 10 µM [2] | inhibition (Mus musculus [3]) | inhibition in vivo at 25 mg/kg (Mus musculus [4])
10 | -10 | COc1cc(NC(=S)NCCCn2cncc2C)ccc1OCCCN1CCN(CCN)CC1 | 28.9% | 100% | inactive | –
11 | -5.8 | COc1cc(NC(=S)NCCCn2cncc2C)ccc1OCCN1CCNCC1C (stereo not given) | 33.4% | 100% | – | 3.01%
12 | -10 | COc1cc(NC(=S)NCCCn2cncc2C)ccc1OCCCCN1CCN(CCN)CC1 | 21.1% | 100% | inactive | –
13 | -6.7 | COc1cc(NC(=S)NCCCn2cncc2C)ccc1OCCC1CCN(CCO)CC1 | 8.2% | 100% | – | 0.19%
14 | -5.8 | COc1cc(NC(=S)NCCCn2cncc2C)ccc1OCc1ccc(C2CCNCC2)cc1 | 40.1% | 100% | – | 30%
15 | -8.7 | COc1cc(NC(=S)NCCCn2cncc2C)ccc1OCCCCN1CCN(CCO)CC1 | – | 100% | – | –
16 | -10 | COc1cc(NC(=S)NCCCn2cncc2C)ccc1OCCCCc1ccnc(NCCN)c1 | 31.5% | 100% | inactive | –
17 | -5.7 | COc1cc(NC(=S)NCCCn2cncc2C)ccc1OCCCC(=O)N1CCNCC1 | 1.9% | 100% | – | 8.07%
18 | -6 | COc1cc(NC(=S)NCCCn2cncc2C)ccc1OCCN1CCN(CCO)CC1 | 9.7% | 100% | inactive | –
19 | -5.7 | COc1cc(NC(=S)NCCCn2cncc2C)ccc1OCCN1CCN(CCN)CC1 | 2.5% | 100% | – | 5.43%
20 | -10 | COc1cc(NC(=S)NCCCn2cncc2C)ccc1OCCCCc1ccnc(NCCO)c1 | 44.4% | 100% | inactive | –
